Values joined by “and” are separate entries in the source; they are usually repeats but may differ in a detail not shown here. Equal entries are not always repeated.
Molecular target: Hrh3 protein (Rattus norvegicus, UniProt Q5PPG3)
Sequence (Q5PPG3 whole entry): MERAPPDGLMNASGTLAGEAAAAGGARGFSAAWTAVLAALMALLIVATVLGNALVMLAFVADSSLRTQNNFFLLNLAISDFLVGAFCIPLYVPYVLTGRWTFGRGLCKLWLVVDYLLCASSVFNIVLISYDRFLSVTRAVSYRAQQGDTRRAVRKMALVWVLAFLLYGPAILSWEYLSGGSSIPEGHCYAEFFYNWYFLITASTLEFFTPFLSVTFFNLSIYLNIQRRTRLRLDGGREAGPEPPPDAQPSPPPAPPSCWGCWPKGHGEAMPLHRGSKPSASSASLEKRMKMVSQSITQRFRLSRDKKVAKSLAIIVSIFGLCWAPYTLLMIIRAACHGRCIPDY

Q: `COc1ccc(CN(CCN(C)C)c2ccccn2)cc1` was tested. Which Ki did it give?
A: The Ki was 7940 nM and > 10000 nM.

Q: With `CN/C([CH-][N+](=O)[O-])=[NH+]\CCSCc1ccc(CN(C)C)o1` as the molecule, how does the Ki read?
A: Its Ki is 5010 nM and > 10000 nM.

Q: For `CNC(=S)NCCCCc1cnc[nH]1` [1-[4-(1H-imidazol-5-yl)butyl]-3-methylthiourea], which Ki is on record?
A: Its Ki is 63.1 nM.

Q: Which Ki does the source give for `Cc1[nH]cnc1CSCCNC(=N)NCCCc1c[nH]cn1` [2-[3-(1H-imidazol-5-yl)propyl]-1-(2-{[(5-methyl-1H-imidazol-4-yl)methyl]sulfanyl}ethyl)guanidine] here?
A: The Ki was 19.9 nM and 12.6 nM.

Q: Which Ki does the source give for `NC(=NC1CCCCC1)N1CCC(c2cnc[nH]2)CC1` [GR-168320] here?
A: Its Ki is 0.15 nM and 0.19 nM.

Source: BindingDB's records for doi:10.1016/0014-2999(96)00428-1 (Glaxo Research & Development, 1996)
